Data reported in ChEMBL document CHEMBL1126923, “Novel inhibitors of prolyl 4-hydroxylase. 5. The intriguing structure-activity relationships seen with 2,2'-bipyridine and its 5,5'-dicarboxylic acid derivatives” (J Med Chem, 1993).

Tests used:
[1] = tested on: Prolyl 4-hydroxylase (Gallus gallus); assay: Inhibition of prolyl 4-hydroxylase by chromatographic determination of [14C]-succinic acid on ion-exchange minicolumna at 100 ug/mL
[2] = tested on: Prolyl 4-hydroxylase (Gallus gallus); assay: Inhibition of prolyl 4-hydroxylase by chromatographic determination of [14C]-succinic acid on ion-exchange minicolumna at 50 ug/mL

| Compound | inhibition [1] | inhibition [2] |
| --- | --- | --- |
| CCOc1ccc(NC(=O)c2ccc(-c3ccc(C(=O)Nc4ccc(OCC)cc4)cn3)nc2)cc1 | 13% |  |
| CCOc1ccc(NC(=O)c2ccc(-c3ccccn3)nc2)cc1 |  | 13% |
